Tests used:
[1] = test system: A549; assay: Cell cycle analysis by flow cytometry; format: cell-based, human; conditions: A549, 1.0 µM, 48 and 72 h
Procedure: (§1) Three different cell lines (MDA-MB-231, A549, and HeLa) were used to evaluate the effect of compound Ff-35 on the cell cycle. Briefly, cells were treated with the test compound for 48 and 72 h. After this incubation period the cells were trypsinized, centrifuged, and fixed by adding cold ethanol (70% v/v). Cell cycles are then acquired through a cytofluorimeter (Beckman Coulter Cytomics FC500, Milano, Italy) and subsequently analyzed using MultiCycle software (Phoenix Flow Systems, San Diego, CA, USA).

[2] = test system: HeLa; assay: Cell cycle analysis by flow cytometry; format: cell-based, human; conditions: 1.0 µM, 48 and 72 h
Procedure: as §1

[3] = test system: MDA-MB-231; assay: Cell cycle analysis by flow cytometry; format: cell-based, human; conditions: MDA-MB-231, 1.0 µM, 48 and 72 h
Procedure: as §1

[4] = test system: A549; assay: Apoptosis by annexin-V-FITC/PI flow cytometry; format: cell-based, human; conditions: A549, 1 and 5 µM, 72 h
Procedure: (§2) MDA-MB-231, A549, and HeLa cells were treated with compound Ff-35 for 72 h and then stained using a commercial kit (Annexin-V-Fluos, Roche Diagnostics, Milano, Italy) containing Annexin-V conjugated with fluorescein isothiocyanate and Propidium iodide (PI). All the procedures were executed according to manufacturer’s instructions. Apoptotic cells were then analyzed through a cytofluorimeter (Beckman Coulter Cytomics FC500).

[5] = test system: HeLa; assay: Apoptosis by annexin-V-FITC/PI flow cytometry; format: cell-based, human; conditions: 1 and 5 µM, 72 h
Procedure: as §2

[6] = test system: MDA-MB-231; assay: Apoptosis by annexin-V-FITC/PI flow cytometry; format: cell-based, human; conditions: MDA-MB-231, 1 and 5 µM, 72 h
Procedure: as §2

[7] = target: T1, CKα1 (Homo sapiens, UniProt P35790); assay: Choline kinase assay ([methyl-14C]choline into PCho, purified enzyme); format: biochemical; conditions: for % Inhibition at 10 µM: purified CKα1, inhibitor 10 µM; for % Inhibition at 10 µM / % Inhibition at 30 µM: end-point assay; for % Inhibition at 30 µM: purified CKα1, inhibitor 30 µM
T1 construct: an N-terminally His-tagged truncated form of CKα1 (Δ75–457) was cloned into a pET-28a vector; His tag (N); made in house; host or cells: E. coli BL21 (DE3) Star
T1 sequence (P35790 75-457): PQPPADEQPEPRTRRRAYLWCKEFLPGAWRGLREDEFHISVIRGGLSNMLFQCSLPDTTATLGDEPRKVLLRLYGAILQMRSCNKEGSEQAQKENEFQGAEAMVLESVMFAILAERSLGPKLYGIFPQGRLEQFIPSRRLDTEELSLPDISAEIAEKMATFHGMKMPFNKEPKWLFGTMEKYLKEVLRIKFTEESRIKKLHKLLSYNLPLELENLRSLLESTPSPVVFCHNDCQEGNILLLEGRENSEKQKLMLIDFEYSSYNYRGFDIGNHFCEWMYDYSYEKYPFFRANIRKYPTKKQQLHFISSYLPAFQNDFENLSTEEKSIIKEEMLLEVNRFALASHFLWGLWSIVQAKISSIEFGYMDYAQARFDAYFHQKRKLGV
Procedure: The protein was produced and purified as previously described. Briefly, an N-terminally His-tagged truncated form of CKα1 (Δ75–457) was cloned into a pET-28a vector and expressed at 37 °C in E. coli BL21 (DE3) Star cells using 1 mM isopropyl β-D-1-thiogalactopyranoside (IPTG). After centrifugation, the cellular pellet was resuspended in 50 mM Tris-HCl pH 7.5, 500 mM NaCl, 0.2 mM phenylmethylsulphonyl fluoride (PMSF), DNase, and 0.5 mM β-mercaptoethanol, sonicated and subjected to a two-step purification procedure to isolate the target enzyme. […] Protein elution was completed using buffer A + 400 mM imidazole. A second size-exclusion chromatography step was then carried out to achieve complete purity. To this end, we used a HiPrep 26/60 Sephacryl 100 HR column (GE Healthcare, Little Chalfont, Buckinghamshire, UK) and a 20 mM Tris/HCl pH 7.5, 150 mM NaCl running buffer.
To study the effect of the compounds on CKα, an in vitro enzymatic assay was performed using the purified enzyme as previously reported in [19, 28, 29]. Briefly, the incorporation of ^14C from [methyl-^14C]choline into PCho in either the absence (control) or presence of different inhibitors at varying concentrations was used to determine the CK activity. The reaction mixture included 20 ng of purified CKα1, 10 mM ATP, 10 mM MgCl2, 100 mM Tris-HCl pH 8.5, and increasing concentrations of compounds. The mixture was preincubated at 37 °C for 5 min. Then, [methyl-^14C]choline chloride (1 mM, 4500 dpm/nmol) was added and the reaction was left to proceed for 10 min at 37 °C. The assay was stopped by immersing the reaction tubes in boiling water. PCho was separated by Thin Layer Chromatography using methanol/0.6% NaCl/28% NH4OH in water (50:50:5, v/v/v) as solvent. The radioactivity associated into PCho was determined in a Beckman 6000-TA (Madrid, Spain) liquid scintillation counter. The 50% inhibitory concentrations (IC50 values) were determined from the % enzyme activity at different concentrations of synthetic inhibitors relative to the control by using a sigmoidal dose–response curve (ED50plus v1.0 software).

[8] = test system: HepG2 cells; assay: Choline uptake assay ([methyl-14C]choline); format: cell-based, human; conditions: HepG2, 24 h
Procedure: Choline uptake was assessed as previously reported. Briefly, HepG2 cells (200,000 cells/well) were incubated for 24 h at 37 °C with different concentrations of CKα1 inhibitors. Then, cells were exposed to [methyl-^14C]choline ([…], 31 Ci/mol) for 5 min at 37 °C. The reaction was stopped by two washes with ice-cold PBS containing 580 μM choline. The cells were solubilized in NaOH 0.1 N and the total amount of radiolabel taken up by the cells was measured by liquid scintillation using a Beckman 6000-TA counter (Madrid, Spain).

[9] = test system: HL-60; assay: Antiproliferative activity, resazurin assay, 72 h; format: cell-based, human
Procedure: (§3) Human cervix carcinoma (HeLa), Non-small lung adenocarcinoma (A549), Colon adenocarcinoma (HT29), and human triple negative breast cancer (MDA-MB-231) were cultured in Dulbecco’s modified Eagle’s media (DMEM). B-acute lymphoblastic leukemia (RS4;11 and SEM), T-acute lymphoblastic leukemia (Jurkat), and human promyelocytic cells (HL-60), were cultured in RPMI-1640 medium. Both media were purchased from Gibco, Life Technologies (Milan, Italy) and supplemented with 10% Fetal Bovine Serum (FBS, Invitrogen, Milan, Italy,). Every six months, each cell line was checked for the presence of mycoplasma by RT-PCR.
(§4) Stock solutions (10 mM) of the different compounds were made in DMSO. Cancer cells were seeded in tissue-treated, flat bottom, 384-well plates (Corning) according to their optimal density, (A549 1000 cells/wells; MDA-MB-231, HeLa and HT-29 2000 cells/well and finally Jurkat, HL-60 SEM and RS4;11 20.000 cells/well) in 27 µL of complete medium per well.
(§5) The day after cell seeding and immediately before cell treatment, 10 mM stock solutions of the compounds were pre-diluted to a […] concentration in 250 µL of Hank’s in a 96-well plate (Corning). Subsequent 1:5 dilutions were carried out using a microlab STAR 96-CORE liquid handling system (Hamilton), a robotized liquid handling tool that was employed for all steps, from cell seeding to drug dilution and cell treatment to ensure high reproducibility while reducing time for large screening execution. This pre-dilution step was necessary to avoid DMSO-related cytotoxicity and compound precipitation in the cell culture medium. In every case, DMSO concentration never exceeded 0.1%.
(§6) Positive (Bortezomib 1 µM) and negative (0.1% DMSO) controls were included in all the screened plates to allow for monitoring the Z’ factor throughout the entire screening. Cells were treated with 3 µL of the previously made dilutions; thus, generating a 6-point 5-fold dose–response curve starting from 10 µM. Within a plate, each drug concentration was tested in duplicate in two independent experiments for each compound.
(§7) Treated cells were then placed inside the CO2 incubator for 72 h at 37 °C. Cell viability was assessed by resazurin assay, in which 3 µL of resazurin per well were added using the previously described automated platform. Plates were placed in the incubator at 37 °C for 2 h, and then the fluorescence of each plate was read using a Spark 10 M multimode microplate reader (Tecan Group Ltd., Mannedorf, Switzerland) with 535 nm excitation wavelength and 600 nm emission wavelength.

[10] = test system: RS 4;11; assay: Antiproliferative activity, resazurin assay, 72 h; format: cell-based, human
Procedure: as §3, §4, §5, §6, §7

[11] = test system: A549; assay: Antiproliferative activity, resazurin assay, 72 h; format: cell-based, human
Procedure: as §3, §4, §5, §6, §7

[12] = test system: HeLa; assay: Antiproliferative activity, resazurin assay, 72 h; format: cell-based, human
Procedure: as §3, §4, §5, §6, §7

[13] = test system: Jurkat; assay: Antiproliferative activity, resazurin assay, 72 h; format: cell-based, human
Procedure: as §3, §4, §5, §6, §7

[14] = test system: SEM cells; assay: Antiproliferative activity, resazurin assay, 72 h; format: cell-based, human
Procedure: as §3, §4, §5, §6, §7

[15] = test system: MDA-MB-231; assay: Antiproliferative activity, resazurin assay, 72 h; format: cell-based, human
Procedure: as §3, §4, §5, §6, §7

[16] = test system: HT29; assay: Antiproliferative activity, resazurin assay, 72 h; format: cell-based, human
Procedure: as §3, §4, §5, §6, §7

[17] = Solubility as observed in the enzyme inhibition assays; format: physicochemical; parameters: key to solubility (footnote b): -: The compound was not soluble; conditions: for solubility (footnote b): CK inhibition assay at 10 and 30 µM

GI50 [9] [nM] | GI50 [11] [nM] | GI50 [12] [nM] | GI50 [13] [nM] | GI50 [15] [nM] | GI50 [16] [nM] | Compound | % Inhibition at 10 µM [7] [%] | % Inhibition at 30 µM [7] [%] | % Inhibition Choline Uptake at 0.5 μM [8] [%] | % Inhibition Choline Uptake at 2 μM [8] [%] | GI50 [10] [nM] | GI50 [14] [nM] | solubility (footnote b) [17] | other results
– | – | – | – | – | – | [Br-].[Br-].c1cc2c(N3CCCCCC3)nc[n+](Cc3ccc(CCCCc4ccc(C[n+]5cnc(N6CCCCCC6)c6ccsc65)cc4)cc3)c2s1 [Ff-35] | 90.55 | 97.80 | 84.99 ± 1.3 | 96.62 ± 0.316 | – | – | – | effect on cell cycle [1]: notable increase in the G1 phase accompanied by a reduction in the S phase; effect on cell cycle [2]: notable increase in the G1 phase accompanied by a reduction in the S phase; effect on cell cycle [3]: notable increase in the G1 phase accompanied by a reduction in the S phase; apoptotic cells [4]: significant increase in apoptotic cells in a concentration-dependent manner; apoptotic cells [5]: significant increase in apoptotic cells in a concentration-dependent manner; apoptotic cells [6]: significant increase in apoptotic cells in a concentration-dependent manner; % Inhibition Choline Uptake at 0.1 μM ([8]; 0.1 μM): 35.64 ± 0.7%
440 ± 20 | 1430 ± 100 | 3020 ± 400 | 6200 ± 900 | 2260 ± 300 | > 10000 | [Br-].[Br-].c1cc2c(N3CCCCCC3)nc[n+](Cc3ccc(OCCOc4ccc(C[n+]5cnc(N6CCCCCC6)c6ccsc65)cc4)cc3)c2s1 [Ff-36] | 84.47 | 96.07 | 71.78 ± 0.1 | 95.32 ± 0.29 | 2260 ± 300 | 2540 ± 200 | – | IC50 ([7]; concentration required to inhibit CKα1 enzyme by 50%): 350 ± 50 nM
150 ± 10 | 310 ± 40 | 780 ± 20 | 4720 ± 600 | 500 ± 20 | 1420 ± 100 | [Br-].[Br-].c1cc2c(N3CCCCCC3)nc[n+](Cc3ccc(CCc4ccc(C[n+]5cnc(N6CCCCCC6)c6ccsc65)cc4)cc3)c2s1 [Fg-19] | – | – | – | – | 1510 ± 200 | 2590 ± 30 | - ^b | solubility (in words) ([17]; IC50 could not be determined): insolubility

Compound | GI50 [9] [nM] | GI50 [11] [nM] | GI50 [12] [nM] | GI50 [13] [nM] | GI50 [15] [nM] | GI50 [16] [nM] | % Inhibition at 10 µM [7] [%] | % Inhibition at 30 µM [7] [%] | % Inhibition Choline Uptake at 0.5 μM [8] [%] | % Inhibition Choline Uptake at 2 μM [8] [%] | GI50 [10] [nM] | GI50 [14] [nM] | solubility (footnote b) [17] | other results
[Br-].[Br-].c1cc2c(N3CCCCCC3)nc[n+](Cc3ccc(-c4ccc(C[n+]5cnc(N6CCCCCC6)c6ccsc65)cc4)cc3)c2s1 [Fg-18] | 790 ± 20 | 210 ± 10 | 1810 ± 20 | 7040 ± 800 | 610 ± 30 | 2320 ± 20 | – | – | – | – | 2650 ± 40 | > 10000 | - ^b | –

Reference: paper PMC9032693, “Biological Evaluation of New Thienopyridinium and Thienopyrimidinium Derivatives as Human Choline Kinase Inhibitors” (Pharmaceutics, 2022)
